Experimental data reported in patent EP0967196B1, “Substituted 2-hydroxybenzophenones, preparation thereof, their use as fungicide and their fungicidal compositions” (BASF AKTIENGESELLSCHAFT, priority 1998, dated 1999).

Tests used:
[1] = system: Blumeria (Erysiphe) graminis DC. f.sp. tritici E. Marchal; experiment: Wheat Powdery Mildew (WPM) curative fungicidal activity, inoculation 3 days before spray application on wheat plants; type: in vivo; set-up: key to WPM 3 day curative Antisporulation effect: +++ = complete (no spore release); ++ = moderate; + = slight; o = none; conditions: for Emax at 0.2 ppm / Emax at 1 ppm / Emax at 5 ppm / Emax at 25 ppm / Emax at 125 ppm: Blumeria, 72 h, WPM 3 da C (3 day curative), wheat variety Kanzler, read-out: Disease control (% efficacy); for Emax at 0.2 ppm: rate 0.2 ppm; for Emax at 125 ppm: rate 125 ppm; for WPM 3 day curative % disease control / WPM 3 day curative Antisporulation effect: Comparison test (Table IV), 200 l/ha
Excerpt: (§1) • Wheat Powdery Mildew (WPM): • HOST: Wheat (Triticum aestivum L.) variety Kanzler • PATHOGEN: Blumeria (Erysiphe) graminis DC. f.sp. tritici E. Marchal
(§2) • 1. Wheat seed (approximately 8-10/pot) is planted in 6 cm diameter plastic pots and maintained in the greenhouse. • 2. When the primary leaf (wheat) is fully expanded, formulated test compounds are sprayed with a single nozzle overhead track sprayer at a rate of 200 l/ha. Plants are then allowed to air-dry. • 3. Inoculation precedes treatment by 3 days in the case of curative evaluations and follows treatment by 4 or 5 days in case of residual evaluations. For inoculation, plants are set up on greenhouse benches with bottom watering mats and inoculated by dusting them with conidia from powdery mildew infected plants (stock cultures at an age of 10-14 days). Between inoculation and treatment for curative evaluations and between treatment and inoculation for residual evaluations, plants are maintained in the greenhouse with bottom watering. • 4. Disease on the primary leaf as percent leaf area with disease symptoms/signs is evaluated about 7 days after inoculation. In the case of wheat, the tips and bases of the leaves are excluded from the evaluation.
(§3) Percent disease control is then calculated by the following formula: % disease control = 100 -(% infection in treated plants)/(% infection in untreated plants)x 100 [formula]
(§4) • 1. Technical compounds are formulated in a solvent/surfactant system consisting of 5% acetone and 0.05% Tween 20 in deionized water. Compounds are dissolved in acetone prior to addition of the water; the Tween 20 can be added through either the acetone or the water. Dilutions are made using the solvent/surfactant system. Formulated compounds are prepared using deionized water. • 2. Two kinds of controls are included: • Plants treated with the solvent/surfactant solution and inoculated (Solvent Blank). • Untreated plants which are inoculated (Inoculated Control).
(§5) The fungicidal activity against wheat powdery mildew of the hydroxybenzophenones according to this invention has been compared with a fungicidal benzophenone known from EP 0 727 141 in the following table. Compounds applied to seedling wheat plants using a single-nozzle overhead track sprayer at an application rate of 200 l/ha.

[2] = system: Blumeria (Erysiphe) graminis DC. f.sp. tritici E. Marchal; experiment: Wheat Powdery Mildew (WPM) residual fungicidal activity, inoculation 4 or 5 days after spray application on wheat plants; type: in vivo; conditions: for Emax at 0.2 ppm / Emax at 1 ppm / Emax at 5 ppm / Emax at 25 ppm / Emax at 125 ppm: Blumeria, WPM 4/5 da R (4/5 day residual), wheat variety Kanzler, read-out: Disease control (% efficacy); for Emax at 0.2 ppm: rate 0.2 ppm; for Emax at 125 ppm: rate 125 ppm; for WPM 4 day residual % disease control: Comparison test (Table IV), 200 l/ha
Excerpt: as §1, §2, §3, §4
4/5 da R = 4/5 day residual Inoculation 4 or 5 days AFTER application
as §5

| Compound | Emax at 0.2 ppm [1] [%] | Emax at 1 ppm ([1]; rate 1 ppm) [%] | Emax at 5 ppm ([1]; rate 5 ppm) [%] | Emax at 25 ppm ([1]; rate 25 ppm) [%] | Emax at 125 ppm [1] [%] | Emax at 0.2 ppm [2] [%] | Emax at 1 ppm ([2]; rate 1 ppm) [%] | Emax at 5 ppm ([2]; rate 5 ppm) [%] | Emax at 25 ppm ([2]; rate 25 ppm) [%] | Emax at 125 ppm [2] [%] | WPM 3 day curative % disease control ([1]; rate 1 ppm) [%] | WPM 3 day curative Antisporulation effect ([1]; rate 1 ppm) | WPM 3 day curative % disease control ([1]; rate 5 ppm) [%] | WPM 3 day curative Antisporulation effect ([1]; rate 5 ppm) | WPM 3 day curative % disease control ([1]; rate 25 ppm) [%] | WPM 3 day curative Antisporulation effect ([1]; rate 25 ppm) | WPM 4 day residual % disease control ([2]; rate 1 ppm) [%] | WPM 4 day residual % disease control ([2]; rate 5 ppm) [%] | WPM 4 day residual % disease control ([2]; rate 25 ppm) [%] |
| --- | --- | --- | --- | --- | --- | --- | --- | --- | --- | --- | --- | --- | --- | --- | --- | --- | --- | --- | --- |
| COc1cc(C)c(C(=O)c2c(OC(C)=O)ccc(Br)c2C)c(OC)c1OC [Example 1, 2-acetoxy-5-bromo-6,6'-dimethyl-2',3',4'-trimethoxybenzophenone] | 2 | 17 | 33 | 49 | 55 | 53 | 84 | 98 | 100 | 100 | – | – | – | – | – | – | – | – | – |
| COc1cc(C)c(C(=O)c2c(O)ccc(Br)c2C)c(OC)c1OC [Example 2, 5-bromo-6,6'-dimethyl-2-hydroxy-2',3',4'-trimethoxybenzophenone] | 13 | 23 | 37 | 53 | 59 | 86 | 98 | 100 | 100 | 100 | 10 | + | 22 | + | 40 | +++ | 52 | 78 | 100 |
| CCCCOc1c(OC)c(OC)cc(C)c1C(=O)c1c(Cl)cccc1Cl [standard, 2'-n-butyloxy-2,6-dichloro-3',4'-dimethoxy-6'-methylbenzophenone, reference compound] | – | – | – | – | – | – | – | – | – | – | 0 | 0 | 3 | 0 | 6 | + | 15 | 47 | 92 |
